Measurements: ChEMBL document CHEMBL1255421, “In vitro fungicidal activities of echinocandins against Candida metapsilosis, C. orthopsilosis, and C. parapsilosis evaluated by time-kill studies” (2010)
Converted amounts (≈) assume the structure as drawn. The source made the active and inactive calls. The rule behind the calls is not given here. Numbered stars: 1 amine (or outer) side, 2 acyl side, 3 side chain; on linkers, the order of the positions; unused ones are H or OH. Bridge positions count the residues as written; N and C are the ends. Square brackets hold non-standard residues; d marks the D form. Peptide text beside a SMILES is read from it. * marks the point of attachment. pTerphenylCO(4''-OnC5H11) = CCCCCOc1ccc(-c2ccc(-c3ccc(C(=O)*)cc3)cc2)cc1; Orn(4R-OH,5R-OH) = O=C([C@H](C[C@@H](O)[C@@H](O)N[*:3])N[*:1])[*:2]; hTyr(3S-OH,4S-OH) = N[C@H](C(=O)O)[C@H](O)[C@@H](O)c1ccc(O)cc1; Pro(3S-OH,4S-Me) = C[C@H]1CN[C@H](C(=O)O)[C@H]1O; Hyp = O=C(O)[C@@H]1C[C@@H](O)CN1

Experiments:
Candida orthopsilosis [1] = assay: Antifungal activity against Candida orthopsilosis clinical isolate bloodstream form assessed as time required for 99.9% reduction in fungal growth at 4 mg/L by time-kill assay; assay type: functional
Candida orthopsilosis [2] = assay: Antifungal activity against Candida orthopsilosis clinical isolate bloodstream form assessed as time required for 99.9% reduction in fungal growth at 16 mg/L by time-kill assay; assay type: functional
Candida orthopsilosis [3] = assay: Antifungal activity against Candida orthopsilosis clinical isolate bloodstream form assessed as time required for 99.9% reduction in fungal growth at 32 mg/L by time-kill assay; assay type: functional
Candida metapsilosis [4] = assay: Antifungal activity against Candida metapsilosis clinical isolate bloodstream form assessed as time required for 50% reduction in fungal growth at 1 mg/L by time-kill assay; assay type: functional
Candida metapsilosis [5] = assay: Antifungal activity against Candida metapsilosis clinical isolate bloodstream form assessed as time required for 50% reduction in fungal growth at 32 mg/L by time-kill assay; assay type: functional
Candida metapsilosis [6] = assay: Antifungal activity against Candida metapsilosis clinical isolate bloodstream form assessed as time required for 90% reduction in fungal growth at 0.25 mg/L by time-kill assay; assay type: functional
Candida metapsilosis [7] = assay: Antifungal activity against Candida metapsilosis clinical isolate bloodstream form assessed as time required for 90% reduction in fungal growth at 1 mg/L by time-kill assay; assay type: functional
Candida metapsilosis [8] = assay: Antifungal activity against Candida metapsilosis clinical isolate bloodstream form assessed as time required for 90% reduction in fungal growth at 16 mg/L by time-kill assay; assay type: functional
Candida metapsilosis [9] = assay: Antifungal activity against Candida metapsilosis clinical isolate bloodstream form assessed as time required for 90% reduction in fungal growth at 32 mg/L by time-kill assay; assay type: functional
Candida metapsilosis [10] = assay: Antifungal activity against Candida metapsilosis clinical isolate bloodstream form assessed as time required for 99% reduction in fungal growth at 16 mg/L by time-kill assay; assay type: functional
Candida metapsilosis [11] = assay: Antifungal activity against Candida metapsilosis clinical isolate bloodstream form assessed as time required for 99% reduction in fungal growth at 32 mg/L by time-kill assay; assay type: functional
Candida metapsilosis [12] = assay: Antifungal activity against Candida metapsilosis clinical isolate bloodstream form assessed as time required for 99.9% reduction in fungal growth at 0.25 mg/L by time-kill assay; assay type: functional
Candida metapsilosis [13] = assay: Antifungal activity against Candida metapsilosis clinical isolate bloodstream form assessed as time required for 99.9% reduction in fungal growth at 4 mg/L by time-kill assay; assay type: functional
Candida metapsilosis [14] = assay: Antifungal activity against Candida metapsilosis clinical isolate bloodstream form assessed as time required for 99.9% reduction in fungal growth at 16 mg/L by time-kill assay; assay type: functional
Candida metapsilosis [15] = assay: Antifungal activity against Candida metapsilosis clinical isolate bloodstream form assessed as time required for 99.9% reduction in fungal growth at 32 mg/L by time-kill assay; assay type: functional
Candida parapsilosis [16] = assay: Antifungal activity against Candida parapsilosis clinical isolate bloodstream form assessed as time required for 50% reduction in fungal growth at 0.25 mg/L by time-kill assay; assay type: functional
Candida parapsilosis [17] = assay: Antifungal activity against Candida parapsilosis clinical isolate bloodstream form assessed as time required for 50% reduction in fungal growth at 4 mg/L by time-kill assay; assay type: functional
Candida parapsilosis [18] = assay: Antifungal activity against Candida parapsilosis clinical isolate bloodstream form assessed as time required for 50% reduction in fungal growth at 32 mg/L by time-kill assay; assay type: functional
Candida parapsilosis [19] = assay: Antifungal activity against Candida parapsilosis clinical isolate bloodstream form assessed as time required for 90% reduction in fungal growth at 1 mg/L by time-kill assay; assay type: functional
Candida parapsilosis [20] = assay: Antifungal activity against Candida parapsilosis clinical isolate bloodstream form assessed as time required for 90% reduction in fungal growth at 4 mg/L by time-kill assay; assay type: functional
Candida parapsilosis [21] = assay: Antifungal activity against Candida parapsilosis clinical isolate bloodstream form assessed as time required for 99% reduction in fungal growth at 1 mg/L by time-kill assay; assay type: functional
Candida parapsilosis [22] = assay: Antifungal activity against Candida parapsilosis clinical isolate bloodstream form assessed as time required for 99% reduction in fungal growth at 4 mg/L by time-kill assay; assay type: functional
Candida parapsilosis [23] = assay: Antifungal activity against Candida parapsilosis clinical isolate bloodstream form assessed as time required for 99% reduction in fungal growth at 16 mg/L by time-kill assay; assay type: functional
Candida parapsilosis [24] = assay: Antifungal activity against Candida parapsilosis clinical isolate bloodstream form assessed as time required for 99.9% reduction in fungal growth at 4 mg/L by time-kill assay; assay type: functional
Candida parapsilosis [25] = assay: Antifungal activity against Candida parapsilosis clinical isolate bloodstream form assessed as time required for 99.9% reduction in fungal growth at 16 mg/L by time-kill assay; assay type: functional
Candida metapsilosis [26] = assay: Antifungal activity against Candida metapsilosis clinical isolate bloodstream form assessed as time required for 99.9% reduction in fungal growth at 1 mg/L by time-kill assay; assay type: functional
Candida orthopsilosis [27] = assay: Fungicidal activity against Candida orthopsilosis isolate CP-131 bloodstream form by CLSI method; assay type: functional; conditions: Lodderomyces orthopsilosis
Candida orthopsilosis [28] = assay: Fungicidal activity against Candida orthopsilosis isolate CP-151 bloodstream form by CLSI method; assay type: functional; conditions: Lodderomyces orthopsilosis
Candida metapsilosis [29] = assay: Fungicidal activity against Candida metapsilosis isolate CP-133 bloodstream form by CLSI method; assay type: functional; conditions: Lodderomyces metapsilosis
Candida metapsilosis [30] = assay: Fungicidal activity against Candida metapsilosis isolate ATC193 bloodstream form by CLSI method; assay type: functional; conditions: Lodderomyces metapsilosis, isolate ATC-193
Candida parapsilosis [31] = assay: Fungicidal activity against Candida parapsilosis isolate CP-302 bloodstream form by CLSI method; assay type: functional; conditions: Lodderomyces parapsilosis
Candida parapsilosis [32] = assay: Fungicidal activity against Candida parapsilosis ATCC 22019 bloodstream form by CLSI method; assay type: functional; conditions: Lodderomyces parapsilosis
Candida parapsilosis [33] = assay: Antifungal activity against Candida parapsilosis clinical isolate bloodstream form assessed as induction of fungal killing rate at 0.03 to 32 mg/L measured at 6 hrs by time-kill assay; assay type: functional, organism-based
Candida orthopsilosis [34] = assay: Antifungal activity against Candida orthopsilosis clinical isolate bloodstream form assessed as induction of fungal killing rate at 0.03 to 32 mg/L measured at 6 hrs by time-kill assay; assay type: functional, organism-based
Candida metapsilosis [35] = assay: Antifungal activity against Candida metapsilosis clinical isolate bloodstream form assessed as mild induction of fungal death at 0.03 to 32 mg/L after 6 hrs by time-kill assay; assay type: functional, organism-based
Candida orthopsilosis [36] = assay: Antifungal activity against Candida orthopsilosis clinical isolate bloodstream form assessed as time required for 50% reduction in fungal growth at 0.25 mg/L by time-kill assay; assay type: functional
Candida orthopsilosis [37] = assay: Antifungal activity against Candida orthopsilosis clinical isolate bloodstream form assessed as time required for 90% reduction in fungal growth at 1 mg/L by time-kill assay; assay type: functional
Candida orthopsilosis [38] = assay: Antifungal activity against Candida orthopsilosis clinical isolate bloodstream form assessed as time required for 90% reduction in fungal growth at 16 mg/L by time-kill assay; assay type: functional
Candida orthopsilosis [39] = assay: Antifungal activity against Candida orthopsilosis clinical isolate bloodstream form assessed as time required for 90% reduction in fungal growth at 32 mg/L by time-kill assay; assay type: functional
Candida orthopsilosis [40] = assay: Antifungal activity against Candida orthopsilosis clinical isolate bloodstream form assessed as time required for 99% reduction in fungal growth at 0.25 mg/L by time-kill assay; assay type: functional
Candida orthopsilosis [41] = assay: Antifungal activity against Candida orthopsilosis clinical isolate bloodstream form assessed as time required for 99% reduction in fungal growth at 1 mg/L by time-kill assay; assay type: functional
Candida orthopsilosis [42] = assay: Antifungal activity against Candida orthopsilosis clinical isolate bloodstream form assessed as time required for 99% reduction in fungal growth at 16 mg/L by time-kill assay; assay type: functional
Candida orthopsilosis [43] = assay: Antifungal activity against Candida orthopsilosis clinical isolate bloodstream form assessed as time required for 99% reduction in fungal growth at 32 mg/L by time-kill assay; assay type: functional

CCCCCOc1ccc(-c2ccc(-c3ccc(C(=O)N[C@H]4C[C@@H](O)[C@@H](O)NC(=O)[C@@H]5[C@@H](O)[C@@H](C)CN5C(=O)[C@H]([C@@H](C)O)NC(=O)[C@H]([C@H](O)[C@@H](O)c5ccc(O)cc5)NC(=O)[C@@H]5C[C@@H](O)CN5C(=O)[C@H]([C@@H](C)O)NC4=O)cc3)cc2)cc1 [ANIDULAFUNGIN] ({pTerphenylCO(4''-OnC5H11)}-[Orn(4R-OH,5R-OH)]T[Hyp][hTyr(3S-OH,4S-OH)]T[Pro(3S-OH,4S-Me)]; lactam 1-C)
Time (Candida orthopsilosis [1]): 27.25 h
Time (Candida orthopsilosis [2]): 18.73 h
Time (Candida orthopsilosis [3]): 14.72 h
Time (Candida metapsilosis [4]): 1.57 h
Time (Candida metapsilosis [5]): 1.41 h
Time (Candida metapsilosis [6]): 25.71 h
Time (Candida metapsilosis [7]): 5.22 h
Time (Candida metapsilosis [8]): 5.01 h
Time (Candida metapsilosis [9]): 4.69 h
Time (Candida metapsilosis [10]): 10.02 h
Time (Candida metapsilosis [11]): 9.37 h
Time (Candida metapsilosis [12]): 77.12 h
Time (Candida metapsilosis [13]): 23.83 h
Time (Candida metapsilosis [14]): 15.03 h
Time (Candida metapsilosis [15]): 14.06 h
Time (Candida parapsilosis [16]): inactive
Time (Candida parapsilosis [17]): 26.41 h
Time (Candida parapsilosis [18]): 4.2 h
Time (Candida parapsilosis [19]): inactive
Time (Candida parapsilosis [20]): >48 h
Time (Candida parapsilosis [21]): inactive
Time (Candida parapsilosis [22]): >48 h
Time (Candida parapsilosis [23]): >48 h
Time (Candida parapsilosis [24]): >48 h
Time (Candida parapsilosis [25]): >48 h
Time (Candida metapsilosis [26]): 15.67 h
MIC (Candida orthopsilosis [27]): 0.25 µg/mL (≈ 0.219 µM)
MIC (Candida orthopsilosis [28]): 0.5 µg/mL (≈ 0.438 µM)
MIC (Candida metapsilosis [29]): 0.06 µg/mL (≈ 0.0526 µM)
MIC (Candida metapsilosis [30]): 0.03 µg/mL (≈ 0.0263 µM)
MIC (Candida parapsilosis [31]): 1 µg/mL (≈ 0.877 µM)
MIC (Candida parapsilosis [32]): 1 µg/mL (≈ 0.877 µM)
Activity (Candida parapsilosis [33]): inactive
Activity (Candida orthopsilosis [34]): inactive
Activity (Candida metapsilosis [35]): Active
Time (Candida orthopsilosis [36]): 17.4 h
Time (Candida orthopsilosis [37]): 21.14 h
Time (Candida orthopsilosis [38]): 6.24 h
Time (Candida orthopsilosis [39]): 4.91 h
Time (Candida orthopsilosis [40]): >48 h
Time (Candida orthopsilosis [41]): 42.28 h
Time (Candida orthopsilosis [42]): 12.48 h
Time (Candida orthopsilosis [43]): 9.81 h
